Marks after values point to notes of the source that are not given here.
Legend:
S. aureus LS-1 = test: Determination of bacterial growth in kidneys, blood and joints; assay type: in vivo; conditions: for Bacterial growth in blood / Bacterial growth in kidney: mean ± SEM
Procedure: On days 3 and 6-7 after S. aureus inoculation blood samples were obtained and the kidneys were aseptically removed. Appropriate dilutions were made and 0.1 ml of tissue suspensions and of whole blood was plated on agar plates containing 5% horse blood. Six days after the inoculation bacterial samples from the talocrural and radiocarpal joints were obtained and plated on agar plates, containing 7.5% sodium chloride. After incubation for 48 h at 37° C. the bacterial colonies were counted and tested for catalase and coagulase activity.

[1] = tested on: peripheral blood leukocytes; test: Hematological analyses during S. aureus infection; assay type: in vivo, NMRI mice
Procedure: Hematological Analyses Mice were bled from the tail into heparinized tubes on days −3, −1, 3, and 6-7 after bacterial inoculation. The leukocytes were counted in a hemacytometer (Toa Medical Electronics, Kobe, Japan). Fifty microliters of the heparinized blood was analysed in a FACScan cytometer (Becton Dickinson, San Jose, Calif.) to determine the percentages of lymphocytes, granulocytes, and monocytes, respectively. The absolute numbers of different leukocyte subsets were then calculated from the total leukocyte counts.

[2] = tested on: T cell mediated DTH reaction; test: Delayed type hypersensitivity to oxazolone (ear swelling); assay type: in vivo, mice; conditions: 12.5 mg/kg two days, the day before and 1 h before challenge; 24 h; similar to controls
peripheral leukocytes = test: Hematological analyses in CII immunized mice; assay type: in vivo, B10.QxDBA/1 female mice
Procedure: Mice were bled from the tail into heparinized tubes at different time-points. The leukocytes were counted in a hemacytometer (Toa Medical Electronics, Kobe, Japan). Fifty microliters of the heparinized blood was analyzed in a FACScan cytometer (Becton Dickinson, San Jose, Calif.) to determine the percentages of lymphocytes, granulocytes, and monocytes. The absolute numbers of different leukocyte subsets were then calculated from the total leukocyte counts.

IL-6 [3] = assay type: cell-based; conditions: spleen cells of mice given 12.5 mg/kg 4 days a week for 4 weeks; mean ± SEM, 4 mice
TNF = TNF release by IC-21 macrophage cell line; assay type: cell-based, murine
Procedure: (§1) Levels of TNF, IL-1b, RANTES, and macrophage inflammatory protein (MIP)-1α were determined using sandwich ELISA from R&D Systems (Minneapolis, Minn.).
(§2) These cells display many typical features of the macrophage phenotype and are therefore a suitable model for studying cytoline and chemokine release during inflammation (16). The cells were maintained in continous culture using RPMI-1640 supplemented with 10% FCS, L-glutamine, and gentamycin. When the cells had grown to about 70% confluency, they were seeded into a 24-well-plate (Nunc) at a concentration of 1×10^5 per well and incubated at 37° C. in 5% CO2 for 24 h. […] After 24 h of incubation, the cells were washed once with PBS, and reincubated with medium containing different concentrations (1, 10, 100, 1000 ng/ml) of LPS (Difco) and IFN-γ (10, 50, 100 u/nml). The interferon-γ was purified from the supernatants from Chinese hanater ovary (CHO) cells transfected with the murine IFN-γ gene (hybridoma kindly provided by Dr. Morris, Department of Biological Sciences, University of Warwick, Coventry, UK). After 2 and 24 h of incubation the supernatants were collected and stored at −20° C. until analysis.

MIP-1α = MIP-1α release by IC-21 macrophage cell line; assay type: cell-based, murine
Procedure: as §1, §2

IL-6 [4] = test: IL-6 release by IC-21 macrophage cell line; assay type: cell-based, murine
Procedure: as §2

IL-1α = test: IL-1 release by IC-21 macrophage cell line; assay type: cell-based, murine
IC-21 cells = test: Viability and cell number of IC-21 cells; assay type: cell-based, murine; conditions: IC-21, etoposide-containing medium at concentrations 0.1 and 0.01 mM (so in the source); preliminary experiments, data not shown
Procedure: as §2, with “h. After 24 h the medium was changed into etoposide-containing medium at concentrations 0.1 and 0.01 mM.” for “h.”

[5] = Day 3 after 1-2×10^7 CFU S. aureus
[6] = Day 6-7 after 1-2×10^7 CFU S. aureus
[7] = Etoposide-pretreated, Day-2 (prior to experiment, baseline)
[8] = Etoposide-treated (from day 40), Day 61
[9] = Etoposide-treated (from day 40), Day-2 (baseline)
[10] = etoposide 0.01 μM 24 h, then IFN-γ 10 u/ml 24 h
[11] = etoposide 0.01 μM 24 h, then IFN-γ 50 u/ml 24 h
[12] = etoposide 0.01 μM 24 h, then IFN-γ 100 u/ml 24 h
[13] = etoposide 0.1 μM 24 h, then IFN-γ 10 u/ml 24 h
[14] = etoposide 0.1 μM 24 h, then IFN-γ 50 u/ml 24 h
[15] = etoposide 0.1 μM 24 h, then IFN-γ 100 u/ml 24 h

SMILES: COc1cc([C@@H]2c3cc4c(cc3[C@@H](O[C@@H]3O[C@@H]5CO[C@@H](C)O[C@H]5[C@H](O)[C@H]3O)[C@H]3COC(=O)[C@H]23)OCO4)cc(OC)c1O [Etoposide]
- Mice with bacteria recovered from joints (S. aureus LS-1; 6 days after inoculation, controls 3 out of 10): 3 out of 8
- Bacterial growth in blood (S. aureus LS-1; [5]): 60 × 10^7 CFU/ml
- Bacterial growth in kidney (S. aureus LS-1; [5]): 3 ± 2 × 10^7 CFU
- Bacterial growth in blood (S. aureus LS-1; [6]): 290 ± 100 × 10^7 CFU/ml
- Bacterial growth in kidney (S. aureus LS-1; [6]): 67 ± 12 × 10^7 CFU
- Numbers of lymphocytes ([1]; day prior to bacterial inoculation): 5.6±0.4 ×10^6/ml
- Numbers of granulocytes ([1]; day −1): 1.3±0.2 ×10^6/ml
- Levels of circulating monocytes ([1]; etoposide from three days prior to S. aureus inoculation, FIG. 4): significantly decreased
- Numbers of lymphocytes ([1]; seven days after infection): 0.8±0.2 ×10^6/ml
- Numbers of granulocytes ([1]; seven days after the inoculation): 1.6±0.4 ×10^6/ml
- DTH reaction to oxazolone (ear thickness increase) [2]: 32±6 ×10^−3 cm
- Granulocytes (peripheral leukocytes; Etoposide-pretreated, Day 61): 698 ± 341^b × 10^4/ml
- Lymphocytes (peripheral leukocytes; Etoposide-pretreated, Day 61): 7.1 ± 3.4 × 10^6/ml
- Monocytes (peripheral leukocytes; Etoposide-pretreated, Day 61): 67 ± 20 × 10^4/ml
- Granulocytes (peripheral leukocytes; [7]): 71 ± 13 × 10^4/ml
- Lymphocytes (peripheral leukocytes; [7]): 4.7 ± 0.3 × 10^6/ml
- Monocytes (peripheral leukocytes; [7]): 18 ± 4 × 10^4/ml
- Granulocytes (peripheral leukocytes; [8]): 991 ± 326^b × 10^4/ml
- Lymphocytes (peripheral leukocytes; [8]): 14.3 ± 3.3^b × 10^6/ml
- Monocytes (peripheral leukocytes; [8]): 92 ± 24^a × 10^4/ml
- Granulocytes (peripheral leukocytes; [9]): 87 ± 20 × 10^4/ml
- Lymphocytes (peripheral leukocytes; [9]): 5.9 ± 0.8 × 10^6/ml
- Monocytes (peripheral leukocytes; [9]): 19 ± 3 × 10^4/ml
- IL-6, Con A (IL-6 [3]): 74 ± 15^a) pg/ml
- IL-6, TSST-1 (IL-6 [3]): 10 ± 3 pg/mL
- Levels of TNF in supernatants (TNF; [10]): 52 pg/mL
- Levels of TNF in supernatants (TNF; [11]): 56 pg/mL
- Levels of TNF in supernatants (TNF; [12]): 65 pg/mL
- Levels of TNF in supernatants (TNF; etoposide 0.01 μM 24 h, then LPS 0 ng/ml 24 h): 66 pg/mL
- Levels of TNF in supernatants (TNF; etoposide 0.01 μM 24 h, then LPS 1 ng/ml 24 h): 207 pg/mL
- Levels of TNF in supernatants (TNF; etoposide 0.01 μM 24 h, then LPS 10 ng/ml 24 h): 3050 pg/mL
- Levels of TNF in supernatants (TNF; etoposide 0.01 μM 24 h, then LPS 100 ng/ml 24 h): 11900 pg/mL
- Levels of TNF in supernatants (TNF; etoposide 0.01 μM 24 h, then LPS 1000 ng/ml 24 h): 12375 pg/mL
- Levels of TNF in supernatants (TNF; [13]): 20 pg/mL
- Levels of TNF in supernatants (TNF; [14]): 32 pg/mL
- Levels of TNF in supernatants (TNF; [15]): 34 pg/mL
- Levels of TNF in supernatants (TNF; etoposide 0.1 μM 24 h, then LPS 0 ng/ml 24 h): 24 pg/mL
- Levels of TNF in supernatants (TNF; etoposide 0.1 μM 24 h, then LPS 1 ng/ml 24 h): 72 pg/mL
- Levels of TNF in supernatants (TNF; etoposide 0.1 μM 24 h, then LPS 10 ng/ml 24 h): 1125 pg/mL
- Levels of TNF in supernatants (TNF; etoposide 0.1 μM 24 h, then LPS 100 ng/ml 24 h): 2325 pg/mL
- Levels of TNF in supernatants (TNF; etoposide 0.1 μM 24 h, then LPS 1000 ng/ml 24 h): 3650 pg/mL
- Levels of MIP-1α in supernatants (MIP-1α; etoposide 0.01 μM 24 h, then IFN-γ 0 u/ml 24 h): 5700 pg/mL
- Levels of MIP-1α in supernatants (MIP-1α; [10]): 4200 pg/mL
- Levels of MIP-1α in supernatants (MIP-1α; [11]): 1075 pg/mL
- Levels of MIP-1α in supernatants (MIP-1α; [12]): 800 pg/mL
- Levels of MIP-1α in supernatants (MIP-1α; etoposide 0.1 μM 24 h, then IFN-γ 0 u/ml 24 h): 3400 pg/mL
- Levels of MIP-1α in supernatants (MIP-1α; [13]): 1950 pg/mL
- Levels of MIP-1α in supernatants (MIP-1α; [14]): 900 pg/mL
- Levels of MIP-1α in supernatants (MIP-1α; [15]): 488 pg/mL
- Levels of IL-6 in supernatants (IL-6 [4]; IC-21, stimulated with IFN-γ, levels very low, FIG. 6B): seemed to be upregulated
- Levels of IL-6 in supernatants (IL-6 [4]; IC-21, stimulation by LPS, FIG. 6A): downregulated
- Levels of IL-1α (IL-1α): No major differences
- Cell viability or total cell numbers (IC-21 cells): not to influence the cell viability or total cell numbers

From US20030148963A1 (priority 2000, published 2003)
